Test results published in patent US7655671B2, “Morphinan derivatives, the quaternary ammonium salts thereof substituted in position 14, method for production and use thereof” (priority 2002, dated 2010).
Counter-ions that a name gives are not always drawn. Like-named read-outs stand apart in the source and are kept apart here.

Experiments:
μ-opioid receptors = biological target: T1, μ-opioid receptors (Rattus norvegicus, UniProt P33535); assay: Opioid receptor binding studies on rat's brain homogenisates with [3H]DAMGO
T1 construct: from tissue; host or cells: rat brain homogenate

μ-receptors = biological target: T2, μ-receptors (Mus musculus, UniProt P42866); assay: Antagonistic activity in the vas deferens preparation of the mouse using DAMGO; format: biochemical; set-up: Ke (vM) (μ-receptors): unit not given here
T2 construct: Vas Deferens Preparation of the Mouse; from tissue; host or cells: mouse vas deferens

mice [1] = assay: Hot-plate test (analgesia); format: in vivo, mouse; conditions: for ED50 (μg/kg, sc) / ED50: subcutaneous application; for ED50: Mus musculus, read-out: ED50 (μg/kg, sc); for ED50 / analgesic activity (in words): sc
Method: A test on mice (“hot-plate test”) was carried out as described earlier (E. L. May et al., J. Med. Chem. 2000; 43, 5030-5036).

mice [2] = assay: animal or person; format: in vivo; conditions: mouse tail flick test; for ED50 (μg/kg, sc) / ED50: subcutaneous application; for analgesic activity (in words) / ED50: sc; for ED50: read-out: ED50 (μg/kg, sc)
rats = assay: Rat tail flick test (analgesia); format: in vivo; conditions: for ED50 (μg/rat, icv): rats of 120 g; for ED50: sc, read-out: ED50 (μg/kg, sc)
Method: To determine the analgesic activity of quaternised compounds, a test on rats, the “Rat Tail Flick Test”, was used. The test was carried out as described earlier (Zs. Fürst et al., Eur. J. Pharmacol. 1993; 236: 209-215).

[3] = [3H]DAMGO as radio-ligand, rat's brain homogenisates, read-out: Ki (nM) (μ-receptors)
[4] = rat tail flick test, subcutaneous application
[5] = rat tail flick test, intracerebroventricular application

T1 sequence (P33535 whole entry): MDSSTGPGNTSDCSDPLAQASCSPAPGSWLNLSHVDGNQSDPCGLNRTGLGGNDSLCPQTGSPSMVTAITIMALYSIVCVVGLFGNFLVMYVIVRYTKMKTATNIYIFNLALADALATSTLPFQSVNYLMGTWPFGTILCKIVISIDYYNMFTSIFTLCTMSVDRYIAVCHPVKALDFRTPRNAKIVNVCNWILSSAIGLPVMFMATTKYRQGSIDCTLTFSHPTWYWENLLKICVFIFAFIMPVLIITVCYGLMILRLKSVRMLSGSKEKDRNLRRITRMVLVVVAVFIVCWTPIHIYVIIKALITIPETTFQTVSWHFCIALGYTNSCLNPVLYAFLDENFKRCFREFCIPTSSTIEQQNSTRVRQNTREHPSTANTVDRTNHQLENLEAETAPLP
T2 sequence (P42866 whole entry): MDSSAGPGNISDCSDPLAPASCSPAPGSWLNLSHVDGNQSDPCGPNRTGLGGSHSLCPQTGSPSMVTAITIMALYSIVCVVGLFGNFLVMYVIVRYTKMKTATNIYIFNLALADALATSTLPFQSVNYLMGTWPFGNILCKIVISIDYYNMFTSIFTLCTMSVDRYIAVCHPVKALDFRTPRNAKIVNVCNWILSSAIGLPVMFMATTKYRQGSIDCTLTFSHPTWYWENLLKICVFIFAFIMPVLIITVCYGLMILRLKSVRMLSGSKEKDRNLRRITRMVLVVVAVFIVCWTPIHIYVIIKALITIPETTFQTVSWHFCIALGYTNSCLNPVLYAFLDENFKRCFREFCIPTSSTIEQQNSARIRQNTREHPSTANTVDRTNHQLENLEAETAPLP

SMILES: COc1c(O)ccc2c1[C@]13CCN(CC4CC4)[C@H](C2)[C@]1(OC)CCC(=O)C3 [3-hydroxycyprodime, reference compound]
- Ki (μ-opioid receptors; [3]): 6.15 nM
- affinity to μ-opioid receptors (in words) (μ-opioid receptors; [3H]DAMGO, rat's brain homogenisates): clearly lower affinity
- Ke (vM) (μ-receptors) (μ-receptors; antagonistic Ke against DAMGO): 5.62

SMILES: CO[C@@]12CCC(=O)[C@]3(C)Oc4c(O)ccc5c4[C@@]31CCN(C)[C@@H]2C5 [14-methoxymetopon, reference compound]
- ED50 (μg/kg, sc) (mice [1]): 30 µg/kg
- Ki (μ-opioid receptors; [3]): 0.55 nM
- ED50 (μg/kg, sc) (mice [2]): 30 µg/kg
- ED50 (μg/kg, sc) (rats; [4]): 7.2 µg/kg

SMILES: COc1ccc2c3c1O[C@H]1C(=O)CC[C@@]4(OCCCc5ccccc5)[C@@H](C2)N(CCc2ccccc2)CC[C@]314 [Compound 4, 4,5α-epoxy-3-methoxy-17-(2-phenylethyl)-14β-(3-phenylpropyloxy)morphinan-6-one hydrochloride]
- ED50 (mice [1]): 60 µg/kg
- analgesic activity (in words) (mice [1]): somewhat lower analgesic activity
- analgesic activity (in words) (mice [2]): somewhat lower analgesic activity
- ED50 (mice [2]): 84 µg/kg

SMILES: C=CCN1CC[C@]23c4c5ccc(O)c4O[C@H]2C(=O)CC[C@@]3(OCCCc2ccccc2)[C@H]1C5 [Compound 6, 17-allyl-4,5α-epoxy-3-hydroxy-14β-(3-phenylpropyloxy)morphinan-6-one hydrochloride]
- ED50 (mice [1]): 5.9 µg/kg
- ED50 (mice [2]): 5.6 µg/kg

SMILES: O=C1CC[C@@]2(OCCCc3ccccc3)[C@H]3Cc4ccc(O)c5c4[C@@]2(CCN3CC2CCC2)[C@H]1O5 [Compound 7, 17-cyclobutylmethyl-4,5α-epoxy-3-hydroxy-14β-(3-phenylpropyloxy)morphinan-6-one hydrochloride]
- ED50 (mice [1]): 3.7 µg/kg
- ED50 (mice [2]): 8.2 µg/kg

SMILES: O=C1CC[C@@]2(OCCCc3ccccc3)[C@H]3Cc4ccc(O)c5c4[C@@]2(CCN3CC2CC2)[C@H]1O5 [Compound 8, 17-cyclopropylmethyl-4,5α-epoxy-3-hydroxy-14β-(3-phenylpropyloxy)morphinan-6-one hydrochloride]
- ED50 (mice [1]): 2.3 µg/kg
- Ki (μ-opioid receptors; [3]): 0.34 nM
- ED50 (mice [2]): 3.2 µg/kg

SMILES: O=C1CC[C@@]2(OCCCc3ccccc3)[C@H]3Cc4ccc(O)c5c4[C@@]2(CCN3CCc2ccccc2)[C@H]1O5 [Compound 9, 4,5α-epoxy-3-hydroxy-17-(2-phenylethyl)-14β-(3-phenylpropyloxy)morphinan-6-one hydrochloride]
- ED50 (mice [1]): 11.7 µg/kg

SMILES: O=C1CC[C@@]2(OCCCc3ccccc3)C3Cc4ccc(O)c5c4[C@@]2(CCN3CC2CCCO2)[C@H]1O5 (stereo partly drawn) [Compound 10, 4,5α-epoxy-17-[2-((R,S)-tetrahydrofuran-2-yl)methyl]-3-hydroxy-14β-(3-phenylpropyloxy)morphinan-6-one hydrochloride]
- ED50 (mice [1]): 1.3 µg/kg
- ED50 (mice [2]): 7 µg/kg

SMILES: CCCN1CC[C@]23c4c5ccc(O)c4O[C@H]2C(=O)CC[C@@]3(OCCCc2ccccc2)[C@H]1C5 [Compound 11, 4,5α-epoxy-3-hydroxy-14β-(3-phenylpropyloxy)-17-propylmorphinan-6-one hydrochloride]
- ED50 (mice [1]): 1.7 µg/kg
- ED50 (mice [2]): 1.6 µg/kg

SMILES: C#CCOc1ccc2c3c1O[C@@]1(C)C(=O)CC[C@@]4(OCCCc5ccccc5)[C@@H](C2)N(C)CC[C@]314.Cl [Compound 17, 4,5α-epoxy-5β,17-dimethyl-14β-[(3-phenylpropyl)oxy]-3-[(prop-2-inyl)oxy]morphinan-6-one hydrochloride]
- analgesic activity (in words) (mice [1]): surprisingly high
- ED50 (μg/kg, sc) (mice [1]): 38 µg/kg
- Ki (μ-opioid receptors; [3]): 0.73 nM
- ED50 (μg/kg, sc) (mice [2]): 21 µg/kg

SMILES: COc1ccc2c3c1O[C@@]1(C)C(=O)CC[C@@]4(OCCCc5ccccc5)[C@@H](C2)N(C)CC[C@]314 [Compound 17a, 4,5α-epoxy-3-methoxy-5β,17-dimethyl-14β-[(3-phenylpropyl)oxy]morphinan-6-one]
- ED50 (mice [1]): 2.6 µg/kg
- Ki (μ-opioid receptors): 0.62 nM
- ED50 (mice [2]): 4.4 µg/kg
- melting point: 126 to 128 °C

SMILES: CN1CC[C@]23c4c5ccc(O)c4O[C@@]2(C)C(=O)CC[C@@]3(OCCCc2ccccc2)[C@H]1C5 [Compound 17b, 4,5α-epoxy-3-hydroxy-5β,17-dimethyl-14β-[(3-phenylpropyl)oxy]morphinan-6-one hydrobromide]
- ED50 (mice [1]): 0.1 µg/kg
- Ki (μ-opioid receptors): 0.2 nM

SMILES: COc1ccc2c(c1OC)[C@]13CCN(C)[C@H](C2)[C@]1(OCCCc1ccccc1)CCC(=O)[C@H]3C [Compound 32, 3,4-dimethoxy-5β,17-dimethyl-14β-[(3-phenylpropyl)oxy]morphinan-6-one hydrochloride]
- ED50 (mice [1]): 22 µg/kg
- analgesic activity (in words) (mice [1]): somewhat lower analgesic activity
- analgesic activity (in words) (mice [2]): very high analgesic activity
- ED50 (mice [2]): 14 µg/kg

SMILES: C[N+]1(C)CC[C@]23c4c5ccc(O)c4O[C@H]2C(=O)CC[C@@]3(OCCCc2ccccc2)[C@H]1C5.[I-] [Compound 38, 4,5α-epoxy-3-hydroxy-17,17-dimethyl-6-oxo-14β-[(3-phenylpropyl)oxy]morphinanium-iodide]
- Ki (μ-opioid receptors): 4.11 nM
- ED50 (μg/rat, icv) (rats; [5]): 12 μg/rat
- analgesic effect (in words) (rats; [4]): very high analgesic effect
- ED50 (rats; [4]): 120 µg/kg
- melting point: 164 to 170 °C

SMILES: C[N@+]1(CC2CCCO2)CC[C@]23c4c5ccc(O)c4OC2C(=O)CCC3(OCCCc2ccccc2)C1C5.[I-] (stereo partly drawn) [Compound 40, (17R)-4,5α-epoxy-3-hydroxy-17-methyl-6-oxo-14β-[(3-phenylpropyl)oxy]-17-[(2-R,S-tetrahydrofurfuran-2-yl)methyl]morphinanium-iodide]
- Ki (μ-opioid receptors): 0.37 nM
- melting point: 156 to 159 °C

SMILES: C=CC[N@@+]1(C)CC[C@]23c4c5ccc(O)c4O[C@H]2C(=O)CC[C@@]3(OCC)[C@H]1C5.[I-] [Compound 41, (17R)-17-allyl-4,5α-epoxy-14β-ethoxy-3-hydroxy-17-methyl-6-oxomorphinanium-iodide]
- Ki (μ-opioid receptors): 2.32 nM
- melting point: 130 to 134 °C

SMILES: C=CC[N@@+]1(C)CC[C@]23c4c5ccc(O)c4O[C@H]2C(=O)CC[C@@]3(OC)[C@H]1C5.[I-] [Compound 42, (17R)-17-allyl-4,5α-epoxy-3-hydroxy-14β-methoxy-17-methyl-6-oxomorphinanium-iodide]
- Ki (μ-opioid receptors): 5.93 nM
- ability to overcome the blood-brain barrier (rats; inferred from icv versus sc activity): only to a limited degree
- analgesic activity (in words) (rats; [5]): extremely active
- ED50 (μg/rat, icv) (rats; [5]): 0.22 μg/rat
- analgesic effect (in words) (rats; [4]): very high analgesic effect
- ED50 (rats; [4]): 16 µg/kg
- melting point: 178 to 181 °C

SMILES: C=CC[N@+]1(C)CC[C@]23c4c5ccc(O)c4O[C@H]2C(=O)CC[C@@]3(OC)[C@H]1C5.[I-] [Compound 43, (17S)-17-allyl-4,5α-epoxy-3-hydroxy-14β-methoxy-17-methyl-6-oxomorphinanium-iodide]
- Ki (μ-opioid receptors): 1.33 nM
- melting point: > 140 °C

SMILES: C[N@+]1(CC2CC2)CC[C@]23c4c5ccc(O)c4O[C@H]2C(=O)CC[C@@]3(OCCCc2ccccc2)[C@H]1C5.[I-] [Compound 48, (17R)-17-cyclopropylmethyl-4,5α-epoxy-3-hydroxy-17-methyl-6-oxo-14β-[(3-phenylpropyl)oxy]morphinanium-iodide]
- Ki (μ-opioid receptors): 0.93 nM
- antagonistic activity to μ-opioid receptors (in words) (μ-receptors; DAMGO): very high antagonistic activity
- melting point: 175 to 176 °C

SMILES: COc1ccc2c3c1O[C@H]1C(=O)CC[C@@]4(OCCCc5ccccc5)[C@@H](C2)[N@@+](C)(CC2CC2)CC[C@]314.[I-] [Compound 49, (17R)-17-cyclopropylmethyl-4,5α-epoxy-3-methoxy-17-methyl-6-oxo-14β-[(3-phenylpropyl)oxy]morphinanium-iodide]
- Ki (μ-opioid receptors): 1.78 nM
- melting point: 133 to 136 °C

SMILES: CN1CC[C@]23c4c5cccc4O[C@H]2C(=O)CC[C@@]3(OCCCc2ccccc2)[C@H]1C5 [Compound 53, 4,5α-epoxy-17-methyl-14β-[(3-phenylpropyl)oxy]morphinan-6-one]
- ED50 (mice [1]): 3 µg/kg
- ED50 (mice [2]): 0.4 µg/kg
- melting point: 105 to 109 °C

SMILES: O=C1CC[C@@]2(OCCCc3ccccc3)[C@H]3Cc4cccc5c4[C@@]2(CC[N@H+]3CC2CC2)[C@H]1O5.[Cl-] [Compound 54, 17-(cyclopropylmethyl)-4,5α-epoxy-14β-[(3-phenylpropyl)oxy]morphinan-6-one hydrochloride]
- Ki (μ-opioid receptors): 0.84 nM
- melting point: 145 to 150 °C

SMILES: O=C1CC[C@@]2(OCCCc3ccccc3)[C@H]3Cc4cccc(O)c4[C@@]2(CC[N@H+]3CC2CC2)C1.[Cl-] [Compound 55, 17-(cyclopropylmethyl)-4-hydroxy-14β-[(3-phenylpropyl)oxy]morphinan-6-one hydrochloride]
- Ki (μ-opioid receptors): 0.4 nM
- melting point: > 170 °C (dec.)

SMILES: COc1cccc2c1[C@]13CC[N@@H+](CC4CC4)[C@H](C2)[C@]1(OCCCc1ccccc1)CCC(=O)C3.[Cl-] [Compound 56, 17-(cyclopropylmethyl)-4-methoxy-14β-[(3-phenylpropyl)oxy]morphinan-6-one hydrochloride]
- Ki (μ-opioid receptors): 0.34 nM
- melting point: 121 to 126 °C

SMILES: CN1CC[C@]23c4c5ccc(O)c4O[C@H]2[C@@H](O)C=C[C@H]3[C@H]1C5 [Morphine, reference compound]
- ED50 (rats; [4]): 1900 µg/kg
